Test system: MV-4-11 cells
Assay: Gene expression microarray analysis (Affymetrix PrimeView) and GSEA
Assay type: cell-based, human
Parameters: RFU PODN (11730768_x_at) / Fold change /veh PODN (11730768_x_at) / RFU LINC00158 (11744669_a_at) / Fold change /veh LINC00158 (11744669_a_at) / RFU DUSP10 (11751237_a_at) / Fold change /veh DUSP10 (11751237_a_at) / RFU ID3 (11757404_x_at) / Fold change /veh ID3 (11757404_x_at) / RFU PLEKHG5 (11737974_s_at) / Fold change /veh PLEKHG5 (11737974_s_at) / RFU LRRC4B (11730491_at) / Fold change /veh LRRC4B (11730491_at) / RFU GIMAP4 (11747438_a_at) / Fold change /veh GIMAP4 (11747438_a_at) / RFU KRT8 (11758183_x_at) / Fold change /veh KRT8 (11758183_x_at) / RFU CNN1 (11734310_a_at) / Fold change /veh CNN1 (11734310_a_at) / RFU VPS37D (11726825_at) / Fold change /veh VPS37D (11726825_at) / RFU C10orf10 (11716522_x_at) / Fold change /veh C10orf10 (11716522_x_at) / RFU KIR2DL2 /// KIR2DL4 /// KIR2DL5A /// KIR2DL5B /// KIR2DS1 /// KIR2DS2 /// KIR2DS3 /// KIR2DS4 /// KIR3DL3 /// KIR3DL3 /// KIR3DS1 (11738374_at) / Fold change /veh KIR2DL2 /// KIR2DL4 /// KIR2DL5A /// KIR2DL5B /// KIR2DS1 /// KIR2DS2 /// KIR2DS3 /// KIR2DS4 /// KIR3DL3 /// KIR3DL3 /// KIR3DS1 (11738374_at) / RFU C1QL1 (11718748_at) / Fold change /veh C1QL1 (11718748_at) / RFU TMPRSS4 (11747572_a_at) / Fold change /veh TMPRSS4 (11747572_a_at) / RFU HAMP (11756126_x_at) / Fold change /veh HAMP (11756126_x_at) / RFU RNFT2 (11725882_a_at) / Fold change /veh RNFT2 (11725882_a_at) / RFU NR4A2 (11747474_a_at) / Fold change /veh NR4A2 (11747474_a_at) / RFU ABCC12 (11746883_a_at) / Fold change /veh ABCC12 (11746883_a_at) / RFU TMEM136 (11760407_x_at) / Fold change /veh TMEM136 (11760407_x_at) / RFU CLDN22 /// WWC2 (11732394_at) / Fold change /veh CLDN22 /// WWC2 (11732394_at) / RFU HLA-DPB1 (11760878_x_at) / Fold change /veh HLA-DPB1 (11760878_x_at) / RFU SPINT1 (11716480_a_at) / Fold change /veh SPINT1 (11716480_a_at) / RFU GAP43 (11754022_s_at) / Fold change /veh GAP43 (11754022_s_at) / RFU A4GNT (11735810_at) / Fold change /veh A4GNT (11735810_at) / RFU PRB3 (11715151_x_at) / Fold change /veh PRB3 (11715151_x_at) / RFU TUBB4B (11761932_at) / Fold change /veh TUBB4B (11761932_at) / RFU CAPN14 (11732068_a_at) / Fold change /veh CAPN14 (11732068_a_at) / RFU TMCC2 (11721928_a_at) / Fold change /veh TMCC2 (11721928_a_at) / RFU IRGQ (11745062_a_at) / Fold change /veh IRGQ (11745062_a_at) / RFU FAM174B (11720279_a_at) / Fold change /veh FAM174B (11720279_a_at) / RFU TMPRSS4 (11748680_a_at) / Fold change /veh TMPRSS4 (11748680_a_at) / RFU FAM212B (11763350_a_at) / Fold change /veh FAM212B (11763350_a_at) / RFU PLEKHG5 (11743358_a_at) / Fold change /veh PLEKHG5 (11743358_a_at) / RFU ZSCAN30 (11745921_a_at) / Fold change /veh ZSCAN30 (11745921_a_at) / RFU CMKLR1 (11741424_a_at) / Fold change /veh CMKLR1 (11741424_a_at) / RFU LOC101060620 /// MAPK8IP1 (11723275_at) / Fold change /veh LOC101060620 /// MAPK8IP1 (11723275_at) / RFU SPTSSB (11747773_x_at) / Fold change /veh SPTSSB (11747773_x_at) / RFU PRSS12 (11739890_at) / Fold change /veh PRSS12 (11739890_at) / RFU BIN1 (11741810_x_at) / Fold change /veh BIN1 (11741810_x_at) / RFU WNT11 (11732464_a_at) / Fold change /veh WNT11 (11732464_a_at) / RFU C10orf10 (11716521_a_at) / Fold change /veh C10orf10 (11716521_a_at) / RFU C5orf56 (11738089_at) / Fold change /veh C5orf56 (11738089_at) / RFU CYB561 (11721691_x_at) / Fold change /veh CYB561 (11721691_x_at) / RFU ANKRD19P (11752326_a_at) / Fold change /veh ANKRD19P (11752326_a_at) / RFU OR2T12 /// OR2T33 /// OR2T8 (11738714_s_at) / Fold change /veh OR2T12 /// OR2T33 /// OR2T8 (11738714_s_at) / RFU VCAN (11748164_a_at) / Fold change /veh VCAN (11748164_a_at) / RFU JSRP1 (11732532_at) / Fold change /veh JSRP1 (11732532_at) / RFU KRTAP10-11 (11738290_x_at) / Fold change /veh KRTAP10-11 (11738290_x_at) / RFU MYO3A (11730013_a_at) / Fold change /veh MYO3A (11730013_a_at) / RFU EBF3 (11725865_a_at) / Fold change /veh EBF3 (11725865_a_at) / RFU CAMK2N1 (11719241_x_at) / Fold change /veh CAMK2N1 (11719241_x_at) / RFU C5orf56 (11738088_a_at) / Fold change /veh C5orf56 (11738088_a_at) / RFU OLFML3 (11715873_a_at) / Fold change /veh OLFML3 (11715873_a_at) / RFU LOC100653217 /// NTM (11731650_a_at) / Fold change /veh LOC100653217 /// NTM (11731650_a_at) / RFU MAPK11 (11762145_a_at) / Fold change /veh MAPK11 (11762145_a_at) / RFU FIZ1 (11724087_x_at) / Fold change /veh FIZ1 (11724087_x_at) / RFU OASL (11726364_x_at) / Fold change /veh OASL (11726364_x_at) / RFU SOX15 (11748057_x_at) / Fold change /veh SOX15 (11748057_x_at) / RFU CD79A (11719716_a_at) / Fold change /veh CD79A (11719716_a_at) / RFU HIST1H1D (11736915_at) / Fold change /veh HIST1H1D (11736915_at) / RFU CASKIN2 (11723855_a_at) / Fold change /veh CASKIN2 (11723855_a_at) / RFU LOC730098 (11760151_x_at) / Fold change /veh LOC730098 (11760151_x_at) / RFU OR4N2 (11742367_at) / Fold change /veh OR4N2 (11742367_at) / RFU PRRT2 (11749266_a_at) / Fold change /veh PRRT2 (11749266_a_at) / RFU SNX32 (11753110_a_at) / Fold change /veh SNX32 (11753110_a_at) / RFU CDHR5 (11726645_a_at) / Fold change /veh CDHR5 (11726645_a_at) / RFU RCAN1 (11760418_a_at) / Fold change /veh RCAN1 (11760418_a_at) / RFU FAM167A (11723789_a_at) / Fold change /veh FAM167A (11723789_a_at) / RFU FAM26E (11764081_at) / Fold change /veh FAM26E (11764081_at) / RFU ISYNA1 (11749810_s_at) / Fold change /veh ISYNA1 (11749810_s_at) / RFU ACY1 (11761880_at) / Fold change /veh ACY1 (11761880_at) / RFU 11764098_at / Fold change /veh 11764098_at / RFU SAMD14 (11745864_x_at) / Fold change /veh SAMD14 (11745864_x_at) / RFU NPB (11741838_a_at) / Fold change /veh NPB (11741838_a_at) / RFU TMPRSS6 (11731388_a_at) / Fold change /veh TMPRSS6 (11731388_a_at) / RFU KRTAP10-2 (11738614_at) / Fold change /veh KRTAP10-2 (11738614_at) / RFU ARHGAP8 /// PRR5-ARHGAP8 (11727945_x_at) / Fold change /veh ARHGAP8 /// PRR5-ARHGAP8 (11727945_x_at) / RFU KRTAP5-7 /// NADSYN1 (11734609_at) / Fold change /veh KRTAP5-7 /// NADSYN1 (11734609_at) / RFU RASL12 (11751679_a_at) / Fold change /veh RASL12 (11751679_a_at) / RFU CDKN2B (11736163_a_at) / Fold change /veh CDKN2B (11736163_a_at) / RFU PRF1 (11729649_at) / Fold change /veh PRF1 (11729649_at) / RFU, ZNF638 /// ZNF638-IT1 / Fold change vs veh, ZNF638 /// ZNF638-IT1 / RFU, PANK3 / Fold change vs veh, PANK3 / RFU, SH3YL1 / Fold change vs veh, SH3YL1 / RFU, ZEB2 / Fold change vs veh, ZEB2 / RFU, NRIP1 / Fold change vs veh, NRIP1 / RFU, PTTG1IP / Fold change vs veh, PTTG1IP / RFU, CAPN2 / Fold change vs veh, CAPN2 / RFU, MED14 / Fold change vs veh, MED14 / RFU, SNORA58 / Fold change vs veh, SNORA58 / RFU, C1orf63 / Fold change vs veh, C1orf63 / RFU, LRRFIP1 / Fold change vs veh, LRRFIP1 / RFU, NDUFAF7 / Fold change vs veh, NDUFAF7 / RFU, SLC12A2 / Fold change vs veh, SLC12A2 / RFU, IBTK / Fold change vs veh, IBTK / RFU, ESF1 / Fold change vs veh, ESF1 / Fold change vs veh, TMEM50B / RFU, TAOK1 / Fold change vs veh, TAOK1 / RFU, ACBD3 / Fold change vs veh, ACBD3 / RFU, TMA16 / Fold change vs veh, TMA16 / RFU, RWDD3 / Fold change vs veh, RWDD3 / RFU, BCAT1 / Fold change vs veh, BCAT1 / RFU, EDEM3 / Fold change vs veh, EDEM3 / RFU, TMEM33 / Fold change vs veh, TMEM33 / RFU, WDR75 / Fold change vs veh, WDR75 / RFU, AHCTF1 / Fold change vs veh, AHCTF1 / RFU, TFRC / Fold change vs veh, TFRC / RFU, ZDHHC17 / Fold change vs veh, ZDHHC17 / RFU, NOM1 / Fold change vs veh, NOM1 / RFU, ARL8B / Fold change vs veh, ARL8B / RFU, ZBTB11 / Fold change vs veh, ZBTB11 / RFU, TAMM41 / Fold change vs veh, TAMM41 / RFU, KIAA1704 /// LOC100996395 / Fold change vs veh, KIAA1704 /// LOC100996395 / RFU, ING1 / Fold change vs veh, ING1 / RFU, TRMT61B / Fold change vs veh, TRMT61B / RFU, FUBP3 / Fold change vs veh, FUBP3 / RFU, TP53 / Fold change vs veh, TP53 / RFU, TNKS2 / Fold change vs veh, TNKS2 / RFU, ZFP14 / Fold change vs veh, ZFP14 / RFU, ACTR2 / Fold change vs veh, ACTR2 / RFU, PPP3R1 / Fold change vs veh, PPP3R1 / RFU, PIK3R1 / Fold change vs veh, PIK3R1 / RFU, HNRNPA1 / Fold change vs veh, HNRNPA1 / RFU, RNF170 / Fold change vs veh, RNF170 / RFU, ZNF28 / Fold change vs veh, ZNF28 / RFU, RNGTT / Fold change vs veh, RNGTT / RFU, OGT / Fold change vs veh, OGT / RFU, BRD1 / Fold change vs veh, BRD1 / RFU, MARS / Fold change vs veh, MARS / RFU, ZNF655 / Fold change vs veh, ZNF655 / RFU, FAHD1 / Fold change vs veh, FAHD1 / RFU, BDP1 / Fold change vs veh, BDP1 / RFU, LRRCC1 / Fold change vs veh, LRRCC1 / RFU, ARID1A / Fold change vs veh, ARID1A / RFU, ZNF146 / Fold change vs veh, ZNF146 / RFU, ZNF330 / Fold change vs veh, ZNF330 / RFU, GPN3 / Fold change vs veh, GPN3 / RFU, C9orf123 / Fold change vs veh, C9orf123 / RFU, N4BP2L2 / Fold change vs veh, N4BP2L2 / RFU, ARFIP1 / Fold change vs veh, ARFIP1 / RFU, FAM179B / Fold change vs veh, FAM179B / RFU, BCL10 / Fold change vs veh, BCL10 / RFU, UHRF1BP1L / Fold change vs veh, UHRF1BP1L / RFU, BET1 / Fold change vs veh, BET1 / RFU, CNOT2 / Fold change vs veh, CNOT2 / RFU, ZNF268 / Fold change vs veh, ZNF268 / Fold change vs veh, ZNF507 / RFU, DGCR2 / Fold change vs veh, DGCR2 / RFU, WDSUB1 / Fold change vs veh, WDSUB1 / Fold change vs veh, HSP90B1 /// MIR3652 / RFU, ADSS / Fold change vs veh, ADSS / RFU, GK / Fold change vs veh, GK / RFU, ZNF148 / Fold change vs veh, ZNF148 / RFU, TAF9 / Fold change vs veh, TAF9 / RFU, SLC1A5 / Fold change vs veh, SLC1A5 / RFU, SLMO2 / Fold change vs veh, SLMO2 / RFU, ABCC4 / Fold change vs veh, ABCC4 / RFU, LOC101060439 /// RAP1B / Fold change vs veh, LOC101060439 /// RAP1B / RFU, RFX7 / Fold change vs veh, RFX7 / RFU, GTPBP10 / Fold change vs veh, GTPBP10 / RFU, CNEP1R1 / Fold change vs veh, CNEP1R1 / RFU, BIVM-ERCC5 /// ERCC5 / Fold change vs veh, BIVM-ERCC5 /// ERCC5 / RFU, ILF3 / Fold change vs veh, ILF3 / RFU 11762660_at / Fold change /veh 11762660_at / RFU VCAN (11757783_s_at) / Fold change /veh VCAN (11757783_s_at) / RFU DDX43 (11728927_at) / Fold change /veh DDX43 (11728927_at) / RFU KRT8 (11758188_x_at) / Fold change /veh KRT8 (11758188_x_at) / RFU NKD1 (11759106_at) / Fold change /veh NKD1 (11759106_at) / RFU SRD5A1 (11742802_a_at) / Fold change /veh SRD5A1 (11742802_a_at) / RFU TPSAB1 /// TPSB2 (11721975_s_at) / Fold change /veh TPSAB1 /// TPSB2 (11721975_s_at) / RFU GSTM3 (11746129_a_at) / Fold change /veh GSTM3 (11746129_a_at) / RFU IL23R (11737362_x_at) / Fold change /veh IL23R (11737362_x_at) / RFU TMEM51 (11727254_a_at) / Fold change /veh TMEM51 (11727254_a_at) / RFU PIWIL2 (11732686_x_at) / Fold change /veh PIWIL2 (11732686_x_at) / RFU ORM1 (11744905_x_at) / Fold change /veh ORM1 (11744905_x_at) / RFU CCDC152 (11743942_at) / Fold change /veh CCDC152 (11743942_at) / RFU ECM1 (11717891_a_at) / Fold change /veh ECM1 (11717891_a_at) / RFU IL23R (11748794_a_at) / Fold change /veh IL23R (11748794_a_at) / RFU TNFAIP8L3 (11732012_x_at) / Fold change /veh TNFAIP8L3 (11732012_x_at) / RFU MBOAT4 (11741988_at) / Fold change /veh MBOAT4 (11741988_at) / RFU 11764193_at / Fold change /veh 11764193_at / RFU TMEM53 (11763286_at) / Fold change /veh TMEM53 (11763286_at) / RFU MAGEB2 (11727129_at) / Fold change /veh MAGEB2 (11727129_at) / RFU TMEM200A (11744735_a_at) / Fold change /veh TMEM200A (11744735_a_at) / RFU CCDC152 (11751479_a_at) / Fold change /veh CCDC152 (11751479_a_at) / RFU FAM211A (11726209_a_at) / Fold change /veh FAM211A (11726209_a_at) / RFU RGS16 (11746705_a_at) / Fold change /veh RGS16 (11746705_a_at) / RFU VCAN (11755009_s_at) / Fold change /veh VCAN (11755009_s_at) / RFU RHOB (11743442_s_at) / Fold change /veh RHOB (11743442_s_at) / RFU RGS16 (11720943_a_at) / Fold change /veh RGS16 (11720943_a_at) / RFU RGS16 (11720944_at) / Fold change /veh RGS16 (11720944_at) / RFU, VPS4B / Fold change vs veh, VPS4B / RFU, CREB1 / Fold change vs veh, CREB1 / RFU, DNAJC13 / Fold change vs veh, DNAJC13 / RFU, GNAQ / Fold change vs veh, GNAQ / RFU, CDK5R1 / Fold change vs veh, CDK5R1 / RFU, ZRANB3 / Fold change vs veh, ZRANB3 / RFU, CUL4A / Fold change vs veh, CUL4A / RFU, CCNY / Fold change vs veh, CCNY / RFU, UFL1 / Fold change vs veh, UFL1 / RFU, COG3 / Fold change vs veh, COG3 / RFU, DIAPH2 / Fold change vs veh, DIAPH2 / RFU, SKA2 / Fold change vs veh, SKA2 / RFU, AFF3 / Fold change vs veh, AFF3 / RFU, LMF1 / Fold change vs veh, LMF1 / RFU, IPO11 / Fold change vs veh, IPO11 / RFU, DFFB / Fold change vs veh, DFFB / RFU, FOXP1 / Fold change vs veh, FOXP1 / RFU, CARD8 / Fold change vs veh, CARD8 / RFU, STRN3 / Fold change vs veh, STRN3 / RFU, ADK / Fold change vs veh, ADK / RFU, RASSF2 / Fold change vs veh, RASSF2 / RFU, WIPF1 / Fold change vs veh, WIPF1 / RFU, LARP1B / Fold change vs veh, LARP1B / RFU, RASA1 / Fold change vs veh, RASA1 / RFU, RB1 / Fold change vs veh, RB1 / RFU, PPFIA1 / Fold change vs veh, PPFIA1 / RFU, MAT2A / Fold change vs veh, MAT2A / RFU, CCT5 / Fold change vs veh, CCT5 / RFU, WDR92 / Fold change vs veh, WDR92 / RFU, CUX1 / Fold change vs veh, CUX1 / RFU, TTC7A / Fold change vs veh, TTC7A / RFU, TMEM135 / Fold change vs veh, TMEM135 / RFU, DEPTOR / Fold change vs veh, DEPTOR / RFU, CPM / Fold change vs veh, CPM / RFU, DNAJB6 / Fold change vs veh, DNAJB6 / RFU, CACNA2D3 / Fold change vs veh, CACNA2D3 / RFU, DTX4 / Fold change vs veh, DTX4 / RFU, TFCP2 / Fold change vs veh, TFCP2 / RFU, GMCL1 /// GMCL1P1 / Fold change vs veh, GMCL1 /// GMCL1P1 / RFU, AEBP2 / Fold change vs veh, AEBP2 / RFU, SNHG1 /// SNORD22 /// SNORD25 /// SNORD26 /// SNORD27 /// SNORD28 /// SNORD29 /// SNORD31 / Fold change vs veh, SNHG1 /// SNORD22 /// SNORD25 /// SNORD26 /// SNORD27 /// SNORD28 /// SNORD29 /// SNORD31 / Fold change (Aza/veh), C12orf56 (ProbeSet 11735607_a_at) / Fold change (ACY-1035/veh), C12orf56 (ProbeSet 11735607_a_at) / Fold change (Aza/veh), FGFR1OP (ProbeSet 11751329_s_at) / Fold change (ACY-1035/veh), FGFR1OP (ProbeSet 11751329_s_at) / Fold change (Aza/veh), VPS36 (ProbeSet 11739960_a_at) / Fold change (ACY-1035/veh), VPS36 (ProbeSet 11739960_a_at) / RFU SYPL1 (11715823_x_at) / Fold change /veh SYPL1 (11715823_x_at) / RFU IGFBP7 (11715501_s_at) / Fold change /veh IGFBP7 (11715501_s_at) / RFU REEP3 (11722064_at) / Fold change /veh REEP3 (11722064_at) / RFU IGLL1 (11728026_x_at) / Fold change /veh IGLL1 (11728026_x_at): dose or concentration left out as unconfirmed
Details: MV-4-11 cells, 48 hours

SMILES: Nc1ncn([C@@H]2O[C@H](CO)[C@@H](O)[C@H]2O)c(=O)n1 [azacitidine]
- RFU MAPK11 (11762145_a_at): 24.54 RFU

From paper PMC5218480 (PLoS ONE, 2017)
